Legend:
[1] = target: 20S proteasome isolated from erythrocytes (Homo sapiens, UniProt P28074); test: 20S proteasome inhibition (chymotrypsin-like activity); format: biochemical; design: purified 20S proteasome isolated from erythrocytes (Enzo Life Sciences); purchased Enzo Life Sciences; host or cells: erythrocytes
Method: Proteasome activity was measured by adapting a method described by Silva et al.. The substrate used to study chymotrypsin-like enzyme activity was Suc-Leu-Leu-Val-Tyr-AMC and the enzyme used was purified 20S proteasome isolated from erythrocytes (Enzo Life Sciences). […] The plate was incubated at 37 °C in the dark for 2 h. […] Lactacystin was used as positive control.

[2] = target: T1, LOX from glycine max (soybean) (Glycine max, UniProt P08170); test: Lipoxygenase glycine max (soybean) assay; format: biochemical; conditions: dose-response assay; read-out: IC50 for LOX inhibition
T1 construct: purchased Sigma-Aldrich
T1 sequence (P08170 1-839): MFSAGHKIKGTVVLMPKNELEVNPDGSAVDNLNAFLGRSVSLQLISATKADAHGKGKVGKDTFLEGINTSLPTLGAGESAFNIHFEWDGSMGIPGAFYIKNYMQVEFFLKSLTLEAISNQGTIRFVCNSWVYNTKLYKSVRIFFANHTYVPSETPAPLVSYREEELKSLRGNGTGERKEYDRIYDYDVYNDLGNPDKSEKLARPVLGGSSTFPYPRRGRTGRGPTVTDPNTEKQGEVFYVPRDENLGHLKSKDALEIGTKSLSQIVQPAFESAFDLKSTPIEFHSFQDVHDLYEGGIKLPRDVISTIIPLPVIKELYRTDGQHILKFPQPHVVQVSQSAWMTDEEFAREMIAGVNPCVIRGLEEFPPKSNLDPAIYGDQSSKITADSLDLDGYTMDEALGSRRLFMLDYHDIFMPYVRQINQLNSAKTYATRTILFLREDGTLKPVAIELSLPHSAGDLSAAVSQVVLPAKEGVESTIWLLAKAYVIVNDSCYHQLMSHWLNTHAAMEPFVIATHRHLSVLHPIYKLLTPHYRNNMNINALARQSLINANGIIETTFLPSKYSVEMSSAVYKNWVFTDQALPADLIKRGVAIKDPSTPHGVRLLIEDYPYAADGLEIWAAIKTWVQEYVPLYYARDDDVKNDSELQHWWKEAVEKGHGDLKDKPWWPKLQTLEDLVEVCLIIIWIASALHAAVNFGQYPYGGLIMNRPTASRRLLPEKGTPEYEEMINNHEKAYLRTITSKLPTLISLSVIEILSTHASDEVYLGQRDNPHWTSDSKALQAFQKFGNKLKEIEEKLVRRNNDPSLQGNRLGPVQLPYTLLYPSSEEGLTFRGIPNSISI
Method: The inhibitory effect on LOX was assessed in 96-well plates, using a modified version of a previously reported procedure from Pereira et al.. […] After 5 min pre-incubation at room temperature, the reaction was started by addition of linoleic acid substrate (20 µL of a 4.18 mM solution in ethanol). The reaction was monitored at 234 nm using a multiplate reader (Multiskan Thermo Fisher Scientific Oy, Vantaa, Finland), for 3 min.

COX-2 = target: T2, COX-2 (Homo sapiens, UniProt P35354); design: method as in PMID 30987203; conditions: 25 µM; low selectivity towards COX-2; cited from earlier work
T2 construct: purchased Cayman Chemical
T2 sequence (P35354 18-604): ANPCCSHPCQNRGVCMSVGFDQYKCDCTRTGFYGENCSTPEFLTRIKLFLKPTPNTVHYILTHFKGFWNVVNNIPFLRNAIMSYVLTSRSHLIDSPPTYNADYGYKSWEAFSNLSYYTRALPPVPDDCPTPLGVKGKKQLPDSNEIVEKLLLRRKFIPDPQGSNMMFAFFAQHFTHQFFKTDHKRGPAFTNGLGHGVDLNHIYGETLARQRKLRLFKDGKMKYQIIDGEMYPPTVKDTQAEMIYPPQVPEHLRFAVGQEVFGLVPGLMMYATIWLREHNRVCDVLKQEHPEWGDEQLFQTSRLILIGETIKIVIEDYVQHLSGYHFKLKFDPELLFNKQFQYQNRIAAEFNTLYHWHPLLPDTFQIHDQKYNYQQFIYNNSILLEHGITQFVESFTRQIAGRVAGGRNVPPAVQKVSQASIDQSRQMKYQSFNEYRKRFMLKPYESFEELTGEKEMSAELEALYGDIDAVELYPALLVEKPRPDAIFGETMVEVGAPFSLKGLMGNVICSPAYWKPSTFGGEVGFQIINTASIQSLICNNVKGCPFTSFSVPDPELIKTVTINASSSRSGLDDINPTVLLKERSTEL

[3] = system: LPS-induced •NO production in RAW 264.7 cells; conditions: cited from earlier work
RAW 264.7 cells = system: RAW 264.7 cells; design: method as in PMID 30987203; conditions: up to 100 µM, 24 h, MTT; cited from earlier work
COX-1 = target: T3, COX-1 (Ovis aries, UniProt P05979); design: method as in PMID 30987203; conditions: 25 µM; cited from earlier work
T3 construct: purchased Cayman Chemical
T3 sequence (P05979 25-600): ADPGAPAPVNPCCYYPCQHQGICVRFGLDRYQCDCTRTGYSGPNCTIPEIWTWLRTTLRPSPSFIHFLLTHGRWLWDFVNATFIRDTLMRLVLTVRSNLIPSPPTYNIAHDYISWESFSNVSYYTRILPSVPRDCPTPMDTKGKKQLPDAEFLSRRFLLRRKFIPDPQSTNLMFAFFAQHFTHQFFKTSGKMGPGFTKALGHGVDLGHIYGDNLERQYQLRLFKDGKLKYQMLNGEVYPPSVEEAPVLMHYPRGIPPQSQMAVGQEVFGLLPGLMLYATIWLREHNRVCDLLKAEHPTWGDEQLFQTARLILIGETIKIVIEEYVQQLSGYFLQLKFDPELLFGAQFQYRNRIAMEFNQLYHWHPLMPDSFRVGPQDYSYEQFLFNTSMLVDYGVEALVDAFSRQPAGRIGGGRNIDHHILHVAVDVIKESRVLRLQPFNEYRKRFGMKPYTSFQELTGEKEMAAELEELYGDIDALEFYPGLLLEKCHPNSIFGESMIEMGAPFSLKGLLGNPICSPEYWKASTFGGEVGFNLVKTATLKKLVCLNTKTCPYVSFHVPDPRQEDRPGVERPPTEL

remaining activity at 100 µM ([1]; 100 µM, read-out: 20S proteasome enzyme activity remaining): 11%
IC50 ([1]; dose-response assay): 30.6 µM
IC50 [2]: 54.1 µM
Compound: COc1ccc2cc(C(C)C(=O)NC(Cc3ccc(O)cc3)C(=O)NC(=Cc3ccccc3)C(=O)O)ccc2c1 [Compound 1, Npx-L-Tyr-Z-ΔPhe-OH]
COX inhibition level (COX-2) (COX-2): modest levels of COX inhibition
inhibition of LPS-induced production of •NO ([3]; preliminary study): modest ability to inhibit
IC50 ([3]; previously reported, read-out: IC50 (LPS-dependent •NO production)): 79.3 µM
cytotoxic effect on RAW 264.7 viability (RAW 264.7 cells): did not show any statistically significant cytotoxic effects
COX inhibition level (COX-1) (COX-1): modest levels of COX inhibition
